One experiment has as its system MTLn3 cells. The conditions noted are these: previous studies (Huigsloot et al., 2002); cited from earlier work.
For experiment [1], the system named is invasive cells and general population of carcinoma cells from MTLn3-derived tumors. The experiment in a line: Cell culture and apoptosis assay (Annexin V-Cy5 / PI) after drug challenge, invasive cells vs general population. Conditions: for drug tolerance (apoptotic index and cell viability) of invasive cells: as a percentage of all carcinoma cells, invasive vs general population of tumor cells, 24 hr recovery after drug, FIG. 3; for drug induced apoptotic index / cell death: invasive cells compared to carcinoma cells of the whole tumor, doxorobucin 17 μM, cisplatin 50 μM, etoposide 50 μM for 1 hr, 24 hrs recovery; for drug induced apoptotic index: Annexin V-Cy5; for cell death: PI staining. The experiment is classed as cell-based, rat. The method, then: The cells collected by the needle collection procedure were subjected to drug challenge using doxorobucin (17 μM), cisplatin (50 μM) or etoposide (50 μM). The apoptotic status and viability of these cells was assessed by staining with propedium iodide (PI) and Annexin V-Cy5. […] The graph represents viability status and apoptotic index of the cells after being challenged by the anticancer drugs. Cell culture and apoptosis assay. The cells extruded from the needles and tumor cells FACS sorted were cultured in DMEM 20% FCS along with streptomycin and penicillin, for 16 hrs. Subsequently, the cells were challenged with either doxorobucin (17 μM) or cisplatin (50 μM) or etoposide (50 μM) for 1 hr, washed and allowed to recover for 24 hrs. The cells were then subjected to an apoptosis assay kit containing Annexin V Cy5 for staining the apoptotic cells and Propedium Iodide (PI) for staining the dead cells (BD Biosciences San Jose, Calif.). After staining the cells using the manufacturer's protocol, the cells were observed under a fluorescent microscope in the green, red and high red channel for GFP, PI and Cy5 respectively. The total number of GFP cells counted was compared to the number of PI positive and Annexin V-Cy5 positive cells. […] We challenged the invasive cells with three most commonly used anticancer drugs, doxorobucin, cisplatin and etoposide. […] We performed these studies on the invasive and general populations of cells from MTLn3-derived tumors. After treatment with the drugs the cells were allowed to recover for 24 hr. Subsequently, the apoptotic index and cell viability was measured as described in the Methods section.

Regarding `COc1cc([C@@H]2c3cc4c(cc3[C@@H](O[C@@H]3O[C@@H]5CO[C@@H](C)O[C@H]5[C@H](O)[C@H]3O)[C@H]3COC(=O)[C@H]23)OCO4)cc(OC)c1O` [etoposide], the induction of apoptosis result in the experiment with MTLn3 cells is on record as “induce apoptosis”. In experiment [1], the “drug tolerance (apoptotic index and cell viability) of invasive cells” value is given as “invasive cells are able to tolerate all three drugs better than the general population of tumor cells”; the “drug induced apoptotic index” value is on record as “lower drug induced apoptotic index”; the cell death entry is given as “lower cell death”.

As for `N.N.[Cl][Pt][Cl]` [cisplatin], the induction of apoptosis entry in the experiment on MTLn3 cells is “induce apoptosis”. Further, in experiment [1], the “drug tolerance (apoptotic index and cell viability) of invasive cells” value is listed as “invasive cells are able to tolerate all three drugs better than the general population of tumor cells”; the “drug induced apoptotic index” value is “lower drug induced apoptotic index”; the cell death result is reported as “lower cell death”.

Consider `COc1cccc2c1C(=O)c1c(O)c3c(c(O)c1C2=O)C[C@@](O)(C(=O)CO)C[C@@H]3O[C@H]1C[C@H](N)[C@H](O)[C@H](C)O1` [doxorubicin], for which, in the experiment on MTLn3 cells, the induction of apoptosis result is recorded as “induce apoptosis”. Besides, in experiment [1], the “drug tolerance (apoptotic index and cell viability) of invasive cells” value is reported as “invasive cells are able to tolerate all three drugs better than the general population of tumor cells”; the “drug induced apoptotic index” value is “lower drug induced apoptotic index”; the cell death result is reported as “lower cell death”.

The values are drawn from patent publication US8298756B2, “Isolation, gene expression, and chemotherapeutic resistance of motile cancer cells” (Albert Einstein College of Medicine of Yeshiva University, priority 2004, dated 2012).
